Experimental data as given in the Bradley open melting point set (2014).
Values joined by “and” are separate entries in the source; they are usually repeats but may differ in a detail not shown here. Identical values can stand only once.

| melting point | Structure (SMILES) |
| --- | --- |
| 142 °C | CC(=O)Oc1ccccc1C(=O)O [aspirin] |
| 57 °C | O=[N+]([O-])c1cccc(N=C=S)c1 [3-nitrophenyl isothiocyanate] |
| 74 °C | FC(F)(F)c1ccc(P(c2ccc(C(F)(F)F)cc2)c2ccc(C(F)(F)F)cc2)cc1 [tris[4-(trifluoromethyl)phenyl]phosphine] |
| 206 °C | O=C1COc2cccnc2N1 [2h-pyrido[3,2-b]-1,4-oxazin-3(4h)-one] |
| 198 °C | Brc1nc2ccccc2[nH]1 [2-bromobenzimidazole] |
| 25.9 °C | OC1CCCCC1 [cyclohexanol] |
| 16.8 °C | O=S(=O)=O [Oxosulfane dioxide] |
| 198 °C | CC1(C(=O)OC2OC(CO)C(O)C(O)C2O)CCCC2(C)C3CCC4CC3(CCC12)CC4(CO)OC1OC(CO)C(O)C(O)C1O (centres undefined) |
| 260 °C | CC(=O)Nc1ccc(C(=O)O)cc1 [4-acetamidobenzoic acid] |
| 190 °C | NC(=O)N1c2ccccc2C=Cc2ccccc21 [Carbamazepine] |
| 280 °C | CC1=CC(C)=NC2N=NC(N)=C12 (centres undefined) [4,6-Dimethyl-2H-pyrazolo[3,4-b]pyridin-3-amine] |
| -67 °C | CC(C)(C)N [2-Methylpropan-2-amine] |
| 24 °C | c1ccc(Cc2ccccc2)cc1 [diphenylmethane] |
| -185 °C | C=CC [Propylene] |
| 64 °C | [O-][n+]1ccccc1 [pyridine n-oxide] |
| 54 °C | O=C1C=CC(=O)O1 [maleic anhydride] |
| 183 °C | OB(O)c1cccc(Cl)c1 [3-chlorobenzeneboronic acid] |
| 8 °C | COCC(=O)O [methoxyacetic acid] |
| 93 °C | CCCCCCCOc1ccc(C(=O)O)cc1 [4-n-heptyloxybenzoic acid] |
| 170 °C | Nc1ncccc1O [2-amino-3-hydroxypyridine] |
| 126 °C | CC(Oc1c(Cl)cccc1Cl)C1=NCCN1 (centres undefined) [lofexidine] |
| 140 °C | Clc1cccc(-c2nnn[nH]2)c1 [5-(3-chlorophenyl)-1h-tetrazole] |
| -95 °C | CCCOC(C)=O [Propyl acetate] |
| 251 °C | c1ccc(-c2c3ccccc3c(-c3ccccc3)c3ccccc23)cc1 [9,10-diphenylanthracene] |
| 72 °C | CCOc1ccc(OCC)cc1 [p-diethoxybenzene] |
| -50 °C | CCOC(=O)CC(=O)OCC [diethyl malonate] |
| 114 °C | COc1cc(C(C)=O)ccc1O [4'-hydroxy-3'-methoxyacetophenone] |

| melting point | Structure (SMILES) |
| --- | --- |
| 181 °C | Oc1c(Cl)cc(Cl)c2cccnc12 [5,7-dichloro-8-hydroxyquinoline] |
| -183 °C | C [methane] |
| -41 °C | Cc1cccc(C(C)(C)C)c1 [3-tert-butyltoluene] |
| 107 °C | Nc1ccccc1NNc1ccccc1 [2-(2-phenylhydrazino)aniline] |
| -70 °C | CCOC(=O)C(=O)C(=O)OCC [diethyl ketomalonate] |
| 98 °C | Clc1cccc2c1=NC(c1ccccc1)C=2c1ccccc1 (centres undefined) [7-chloro-2,3-diphenyl-1H-indole] |
| 92 °C | OCc1ccccc1I [o-iodobenzyl_alcohol] |
| 82 °C | N#Cc1cccc(O)c1 [3-cyanophenol] |
| 107 °C | Oc1ccc(Cl)c(O)c1 [4-Chlorobenzene-1,3-diol] |
| 87 °C | CS(=O)(=O)c1ccccc1 [methyl phenyl sulfone] |
| 200 °C | CC12CCC(C(=O)C1=O)C2(C)C (centres undefined) [camphorquinone] |
| 272 °C | NS(=O)(=O)c1cc2c(cc1C(F)(F)F)NCNS2(=O)=O [hydroflumethiazide] |
| 188 °C | Cc1c(C)n(C(N)=O)c2ccccc12 [2,3-dimethyl-1H-indole-1-carboxamide] |
| 56 °C | CCCCCCCCOc1ccc(N(NC(=O)OC(C)(C)C)C(=O)OC(C)(C)C)cc1OCCCCCCCC |
| 106 °C | CSCC[C@H](NC(C)=O)C(=O)O [N-Acetyl-L-methionine] |
| 179 °C | OB(O)c1ccccc1-c1ccccc1 [biphenyl-2-boronic acid] |
| 275 °C | NC(CC(=O)O)C(=O)O (centres undefined) [aspartic acid] |
| 106 °C | O=C(O)Cc1ccc(Cl)cc1 [4-chlorophenylacetic acid] |
| 13 °C | C=CC(=O)O [acrylic_acid] |
| 154 °C | O=[N+]([O-])c1cc[n+]([O-])c(Cl)c1 [2-chloro-4-nitropyridine n-oxide] |
| 128 °C | CCCCNC(=O)NS(=O)(=O)c1ccc(C)cc1 [Tolbutamide] |
| 51 °C | COC(=O)c1ccc(CO)cc1 [methyl_4-hydroxymethylbenzoate] |
| 257 °C | CC(=O)N(C1=NC(=O)/C(=C/c2cc(C)n(-c3ccc(C)cc3)c2C)S1)c1ccccc1 [OSM-S-50] |
| 300 °C | NCCS(=O)(=O)O [2-Aminoethanesulfonic acid] |
| 96 °C | Cc1cccc(C(N)=O)c1 [m-toluamide] |
| 153 °C | COc1ccc2cc(OC)ccc2c1 [2,6-dimethoxynaphthalene] |
| 135 °C | Cc1ccc(CNC2=CC(=O)c3ccccc3C2=O)nc1 [2-{[(5-methylpyridin-2-yl)methyl]amino}naphthalene-1,4-dione] |

| melting point | Structure (SMILES) |
| --- | --- |
| 157 °C | COC(=O)c1c(Cl)c(Cl)c(C(=O)OC)c(Cl)c1Cl [dimethyl tetrachloroterephthalate] |
| 273 °C | O=C(O)c1ccc(I)cc1 [p-iodobenzoic_acid] |
| 168 °C | Cc1ccc(S(=O)(=O)N=S(C)(C)=O)cc1 [S,S-dimethyl-N-(p-toluenesulfonyl)sulfoximine] |
| 79 °C | Oc1ccc2ccccc2c1Br [1-bromo-2-naphthol] |
| 173 °C | O=C(OC)\C1=C(\N/C(=C(/C(=O)OC)C1c2ccccc2[N+]([O-])=O)C)C [nifedipine] |
| 34.5 °C | O=CC1CCCCC1 [cyclohexanecarbaldehyde] |
| -5 °C | CCCCCCCCCC=O [decanal] |
| -48 °C | C=C(C)C(=O)OC [methyl_methacrylate] |
| 75 °C | COC(=O)c1ncoc1C(=O)OC [dimethyl oxazole-4,5-dicarboxylate] |
| 226 °C | N#Cc1ccc(C#N)cc1 [terephthalonitrile] |
| 159 °C | CC1(C)c2ccccc2N(Cc2ccccc2)C12C=Cc1cc([N+](=O)[O-])ccc1O2 (centres undefined) |
| 41 °C | Cc1cncc(C)n1 [2,6-dimethylpyrazine] |
| 32 °C | Cc1ccc(C(C)C)cc2c(C)ccc1-2 [guaiazulene] |
| 92.5 °C | C=CCOc1ccc(CC(=O)O)cc1Cl [alclofenac] |
| 200 °C | O=[N+]([O-])c1ccc(N=Nc2ccc(O)cc2O)cc1 [4-[(4-Nitrophenyl)diazenyl]benzene-1,3-diol] |
| 94 °C | CC(C)CCOC(=O)/C=C/c1ccc(/C=C/C(=O)OCCC(C)C)c([N+](=O)[O-])c1 |
| -40 °C | O=S(=O)(O)C(F)(F)F [Trifluoromethanesulfonic acid] |
| 45 °C | Cc1cc(C)c(N=C=O)c(C)c1 [2,4,6-trimethylphenyl isocyanate] |
| 79 °C | COc1ccc2c(c1)CCCC2=O [6-methoxy-1-tetralone] |
| 168 °C | Cc1ncccc1O [3-hydroxy-2-methylpyridine] |
| -118 °C | CCC(C)CC [3-methylpentane] |
| -46 °C | Clc1ccccn1 [2-chloropyridine] |
| 127 °C | NC(=O)c1ccccc1 [Benzamide] |
| 50 °C | Cc1ccc(C(=O)c2ccccc2)cc1 [4-Methylbenzophenone] |
| 89 °C | Cc1cc(C=O)c(C)n1-c1ccccc1 [2,5-dimethyl-1-phenylpyrrole-3-carboxaldehyde] |

| Structure (SMILES) | melting point |
| --- | --- |
| Cc1cc(Cl)c(Cl)cc1Cl [2,4,5-Trichlorotoluene] | 82.4 °C |
| Oc1cccc(Cl)c1 [3-Chlorophenol] | 33 °C and 32.6 °C |
| ClC1C(Cl)C(Cl)C(Cl)C(Cl)C1Cl (centres undefined) [lindane] | 114 °C |
| CC(C)(C)C(=O)Cl [trimethylacetyl chloride] | -57 °C |
| C=CC(N)=O [acrylamide] | 84 °C |
| CCCCC(CC)COC(=O)c1ccccc1C(=O)OCC(CC)CCCC (centres undefined) [bis-2-ethylhexyl_phthalate] | -50 °C |
| O=[N+]([O-])c1cc([N+](=O)[O-])c(F)cc1F [1,5-difluoro-2,4-dinitrobenzene] | 74 °C |
| C=CC(=O)OCC(CC)CCCC (centres undefined) [2-ethylhexyl acrylate] | -90 °C |
| C1CCC(C2CCCCC2)CC1 [dicyclohexyl] | 4 °C |
| C[C@]12CCC(=O)C=C1CC[C@@H]1[C@@H]2CC[C@@]2(C)[C@H]1CC[C@]2(C)O [17a-Methyltestosterone] | 163 °C |
| O=C(Cl)CCCCl [4-chlorobutyryl chloride] | -49 °C |
| Brc1ccc(Br)cc1 [1,4-Dibromobenzene] | 88 °C |
| ClC1C(Cl)C(Cl)C(Cl)C(Cl)C1Cl (centres undefined) [1,2,3,4,5,6-Hexachlorocyclohexane] | 113 °C |
| c1ccc2c(c1)Cc1cc3ccccc3cc1-2 [2,3-benzofluorene] | 210 °C |
| OCCOCCO [diethylene glycol] | -10 °C |
| Nc1ccc(Cl)cc1 [4-chloroaniline] | 70 °C |
| Cc1ccc(N)cc1 [p-toluidine] | 44 °C |
| c1ccc(CC2CCNCC2)cc1 [4-benzylpiperidine] | 7 °C |
| CCCCCCC#N [heptanenitrile] | -64 °C |
| CCCCC#N [Valeronitrile] | -96 °C |
| O=C(c1ccccc1)C(Cl)Cl [2,2-dichloroacetophenone] | 21 °C |
| COc1ccc(C(=O)O)cc1OC [3,4-Dimethoxybenzoic acid] | 181 °C |
| COS(C)(=O)=O [Methyl methanesulfonate] | 20 °C |
| O=C(CS(=O)C(c1ccccc1)c1ccccc1)NO (centres undefined) [adrafinil] | 159 °C |
| CCC(=O)O[C@](Cc1ccccc1)(c1ccccc1)[C@H](C)CN(C)C [propoxyphene] | 75.5 °C |
